From patent US8808979B2, “Methods related to liver enzyme induction as a predisposition for liver toxicity and diseases or disorders associated therewith” (priority 2008, dated 2014)

Experiments:
female rats = test: Plasma metabolite profiling (GC-MS/LC-MS), markers for liver enzyme induction in female rats, 28-day gavage study; assay type: in vivo, rat; details: high dose
Protocol: (§1) A group of each 5 male and female rats was dosed once daily with the indicated compounds (see tables below) at 10 and 100 mg/kg body weight per gavage over 28 days. Additional groups of each 5 male and female animals served as controls. Before starting the treatment period, animals, which were 62-64 days old when supplied, were acclimatized to the housing and environmental conditions for 7 days. All animals of the animal population were kept under the same constant temperature (20-24±3° C.) and the same constant humidity (30-70%). Each animal of the animal population was kept in a separate cage. The animals of the animal population are fed ad libitum. The food to be used was be essentially free of chemical or microbial contaminants. Drinking water was also offered ad libitum. Accordingly, the water was be free of chemical and microbial contaminants as laid down in the European Drinking Water Directive 98/83/EG. The illumination period was 12 hours light followed by 12 hours darkness (12 hours light, from 6:00 to 18:00, and 12 hours darkness, from 18:00 to 6:00).
(§2) In the morning of day 7, 14, and 28, blood was taken from the retroorbital venous plexus from fasted anaesthetized animals. From each animal, 1 ml of blood was collected with EDTA as anticoagulant. The samples were be centrifuged for generation of plasma. All plasma samples were covered with a N2 atmosphere and then stored at—80° C. until analysis.
(§3) For mass spectrometry-based metabolite profiling analyses plasma samples were extracted and a polar and a non-polar fraction was obtained. For GC-MS analysis, the non-polar fraction was treated with methanol under acidic conditions to yield the fatty acid methyl esters. Both fractions were further derivatised with O-methyl-hydroxyamine hydrochloride and pyridine to convert oxo-groups to O-methyloximes and subsequently with a silylating agent before analysis. In LC-MS analysis, both fractions were reconstituted in appropriate solvent mixtures. HPLC was performed by gradient elution on reversed phase separation columns. For mass spectrometric detection metanomics proprietary technology was applied which allows target and high sensitivity MRM (Multiple Reaction Monitoring) profiling in parallel to a full screen analysis.
(§4) Following comprehensive analytical validation steps, the data for each analyte were normalized against data from pool samples. These samples were run in parallel through the whole process to account for process variability. The significance of treatment group values specific for sex, dose group and metabolite was determined by comparing means of the treated groups to the means of the respective untreated control groups using Student's t-test. Normalized treatment group values and their significance were fed into a database for further statistics and data mining processes.
(§5) The changes of the group of plasma metabolites being indicative for liver enzyme induction after treatment of the rats are shown in the following tables: […]

male rats = test: Plasma metabolite profiling (GC-MS/LC-MS), markers for liver enzyme induction in male rats, 28-day gavage study; assay type: in vivo, rat; details: high dose
Protocol: as §1, §2, §3, §4, §5

Clc1cc(Cl)c(Cl)c(Cl)c1Cl [Pentachlorobenzene]
1,2-Dioleoyl-sn-glycero-3-phosphatidyl-L-serine, change of plasma metabolite, fh7 (female rats; day 7, relative to controls): 1.28 | Arachidonic acid (C20:cis-[5,8,11,14]4), change of plasma metabolite, fh7 (female rats; day 7, relative to controls): 1.27 | Behenic acid (C22:0), change of plasma metabolite, fh7 (female rats; day 7, relative to controls): 1.30 | Cholesterol, change of plasma metabolite, fh7 (female rats; day 7, relative to controls): 1.23 | Docosahexaenoic acid (C22:cis[4,7,10,13,16,19]6), change of plasma metabolite, fh7 (female rats; day 7, relative to controls): 1.79 | Dodecanol, change of plasma metabolite, fh7 (female rats; day 7, relative to controls): 1.17 | Eicosanoic acid (C20:0), change of plasma metabolite, fh7 (female rats; day 7, relative to controls): 1.13 | Galactose, lipid fraction, change of plasma metabolite, fh7 (female rats; day 7, relative to controls): 1.10 | Glycerol, lipid fraction, change of plasma metabolite, fh7 (female rats; day 7, relative to controls): 2.38 | Glycerolphosphate, lipid fraction, change of plasma metabolite, fh7 (female rats; day 7, relative to controls): 1.27 | Heptadecanoic acid (C17:0), change of plasma metabolite, fh7 (female rats; day 7, relative to controls): 1.32 | Lignoceric acid (C24:0), change of plasma metabolite, fh7 (female rats; day 7, relative to controls): 1.39 | Linoleic acid (C18:cis[9,12]2), change of plasma metabolite, fh7 (female rats; day 7, relative to controls): 2.11 | Nervonic acid (C24:1), change of plasma metabolite, fh7 (female rats; day 7, relative to controls): 0.97 | Palmitic acid (C16:0), change of plasma metabolite, fh7 (female rats; day 7, relative to controls): 1.59 | Phosphatidylcholine (C18:0/C18:2), change of plasma metabolite, fh7 (female rats; day 7, relative to controls): 1.14 | Sphingolipids (3- and 5-Methoxysphingosine), change of plasma metabolite, fh7 (female rats; day 7, relative to controls): 1.43 | Stearic acid (C18:0), change of plasma metabolite, fh7 (female rats; day 7, relative to controls): 1.30 | Threonic acid, change of plasma metabolite, fh7 (female rats; day 7, relative to controls): 3.67 | Tricosanoic acid (C23:0), change of plasma metabolite, fh7 (female rats; day 7, relative to controls): 1.18 | gamma-Linolenic acid (C18:cis[6,9,12]3), change of plasma metabolite, fh7 (female rats; day 7, relative to controls): 1.71 | myo-Inositol-2-monophosphate, lipid fraction, change of plasma metabolite, fh7 (female rats; day 7, relative to controls): 1.81 | 1,2-Dioleoyl-sn-glycero-3-phosphatidyl-L-serine, change of plasma metabolite, fh14 (female rats; day 14, relative to controls): 1.72 | Arachidonic acid (C20:cis-[5,8,11,14]4), change of plasma metabolite, fh14 (female rats; day 14, relative to controls): 1.89 | Behenic acid (C22:0), change of plasma metabolite, fh14 (female rats; day 14, relative to controls): 1.60 | Cholesterol, change of plasma metabolite, fh14 (female rats; day 14, relative to controls): 1.64 | Docosahexaenoic acid (C22:cis[4,7,10,13,16,19]6), change of plasma metabolite, fh14 (female rats; day 14, relative to controls): 2.49 | Dodecanol, change of plasma metabolite, fh14 (female rats; day 14, relative to controls): 1.79 | Eicosanoic acid (C20:0), change of plasma metabolite, fh14 (female rats; day 14, relative to controls): 2.76 | Galactose, lipid fraction, change of plasma metabolite, fh14 (female rats; day 14, relative to controls): 1.28 | Glycerol, lipid fraction, change of plasma metabolite, fh14 (female rats; day 14, relative to controls): 7.37 | Glycerolphosphate, lipid fraction, change of plasma metabolite, fh14 (female rats; day 14, relative to controls): 1.52 | Heptadecanoic acid (C17:0), change of plasma metabolite, fh14 (female rats; day 14, relative to controls): 1.89 | Lignoceric acid (C24:0), change of plasma metabolite, fh14 (female rats; day 14, relative to controls): 1.60 | Linoleic acid (C18:cis[9,12]2), change of plasma metabolite, fh14 (female rats; day 14, relative to controls): 5.23 | Nervonic acid (C24:1), change of plasma metabolite, fh14 (female rats; day 14, relative to controls): 1.55 | Palmitic acid (C16:0), change of plasma metabolite, fh14 (female rats; day 14, relative to controls): 3.46 | Phosphatidylcholine (C18:0/C18:2), change of plasma metabolite, fh14 (female rats; day 14, relative to controls): 1.20 | Sphingolipids (3- and 5-Methoxysphingosine), change of plasma metabolite, fh14 (female rats; day 14, relative to controls): 1.77 | Stearic acid (C18:0), change of plasma metabolite, fh14 (female rats; day 14, relative to controls): 1.87 | Threonic acid, change of plasma metabolite, fh14 (female rats; day 14, relative to controls): 3.63 | Tricosanoic acid (C23:0), change of plasma metabolite, fh14 (female rats; day 14, relative to controls): 1.46 | gamma-Linolenic acid (C18:cis[6,9,12]3), change of plasma metabolite, fh14 (female rats; day 14, relative to controls): 4.53 | myo-Inositol-2-monophosphate, lipid fraction, change of plasma metabolite, fh14 (female rats; day 14, relative to controls): 3.61 | 1,2-Dioleoyl-sn-glycero-3-phosphatidyl-L-serine, change of plasma metabolite, fh28 (female rats; day 28, relative to controls): 1.51 | Arachidonic acid (C20:cis-[5,8,11,14]4), change of plasma metabolite, fh28 (female rats; day 28, relative to controls): 1.50 | Behenic acid (C22:0), change of plasma metabolite, fh28 (female rats; day 28, relative to controls): 1.41 | Cholesterol, change of plasma metabolite, fh28 (female rats; day 28, relative to controls): 1.62 | Docosahexaenoic acid (C22:cis[4,7,10,13,16,19]6), change of plasma metabolite, fh28 (female rats; day 28, relative to controls): 1.57 | Dodecanol, change of plasma metabolite, fh28 (female rats; day 28, relative to controls): 1.40 | Eicosanoic acid (C20:0), change of plasma metabolite, fh28 (female rats; day 28, relative to controls): 1.98 | Galactose, lipid fraction, change of plasma metabolite, fh28 (female rats; day 28, relative to controls): 1.40 | Glycerol, lipid fraction, change of plasma metabolite, fh28 (female rats; day 28, relative to controls): 2.68 | Glycerolphosphate, lipid fraction, change of plasma metabolite, fh28 (female rats; day 28, relative to controls): 1.43 | Heptadecanoic acid (C17:0), change of plasma metabolite, fh28 (female rats; day 28, relative to controls): 1.54 | Lignoceric acid (C24:0), change of plasma metabolite, fh28 (female rats; day 28, relative to controls): 1.75 | Linoleic acid (C18:cis[9,12]2), change of plasma metabolite, fh28 (female rats; day 28, relative to controls): 2.69 | Nervonic acid (C24:1), change of plasma metabolite, fh28 (female rats; day 28, relative to controls): 1.46 | Palmitic acid (C16:0), change of plasma metabolite, fh28 (female rats; day 28, relative to controls): 1.86 | Phosphatidylcholine (C18:0/C18:2), change of plasma metabolite, fh28 (female rats; day 28, relative to controls): 1.23 | Sphingolipids (3- and 5-Methoxysphingosine), change of plasma metabolite, fh28 (female rats; day 28, relative to controls): 1.73 | Stearic acid (C18:0), change of plasma metabolite, fh28 (female rats; day 28, relative to controls): 1.65 | Threonic acid, change of plasma metabolite, fh28 (female rats; day 28, relative to controls): 4.57 | Tricosanoic acid (C23:0), change of plasma metabolite, fh28 (female rats; day 28, relative to controls): 1.45 | gamma-Linolenic acid (C18:cis[6,9,12]3), change of plasma metabolite, fh28 (female rats; day 28, relative to controls): 2.98 | myo-Inositol-2-monophosphate, lipid fraction, change of plasma metabolite, fh28 (female rats; day 28, relative to controls): 1.93 | 1,2-Dioleoyl-sn-glycero-3-phosphatidyl-L-serine, change of plasma metabolite, mh7 (male rats; day 7, relative to controls): 1.27 | Behenic acid (C22:0), change of plasma metabolite, mh7 (male rats; day 7, relative to controls): 1.43 | Cholesterol, change of plasma metabolite, mh7 (male rats; day 7, relative to controls): 1.31 | Eicosapentanoic acid, change of plasma metabolite, mh7 (male rats; day 7, relative to controls): 1.4 | Galactose, lipid fraction, change of plasma metabolite, mh7 (male rats; day 7, relative to controls): 1.37 | Lignoceric acid (C24:0), change of plasma metabolite, mh7 (male rats; day 7, relative to controls): 1.32 | Nervonic acid (C24:1), change of plasma metabolite, mh7 (male rats; day 7, relative to controls): 1.30 | Phosphatidylcholine (C18:0/C18:2), change of plasma metabolite, mh7 (male rats; day 7, relative to controls): 1.01 | Phosphatidylcholine (C18:0/C22:6), change of plasma metabolite, mh7 (male rats; day 7, relative to controls): 1.12 | Sphingolipids (3- and 5-Methoxysphingosine), change of plasma metabolite, mh7 (male rats; day 7, relative to controls): 1.42 | Stearic acid (C18:0), change of plasma metabolite, mh7 (male rats; day 7, relative to controls): 1.34 | Threonic acid, change of plasma metabolite, mh7 (male rats; day 7, relative to controls): 3.06 | 1,2-Dioleoyl-sn-glycero-3-phosphatidyl-L-serine, change of plasma metabolite, mh14 (male rats; day 14, relative to controls): 1.35 | Behenic acid (C22:0), change of plasma metabolite, mh14 (male rats; day 14, relative to controls): 1.26 | Cholesterol, change of plasma metabolite, mh14 (male rats; day 14, relative to controls): 1.46 | Eicosapentanoic acid, change of plasma metabolite, mh14 (male rats; day 14, relative to controls): 1.4 | Galactose, lipid fraction, change of plasma metabolite, mh14 (male rats; day 14, relative to controls): 1.37 | Lignoceric acid (C24:0), change of plasma metabolite, mh14 (male rats; day 14, relative to controls): 1.16 | Nervonic acid (C24:1), change of plasma metabolite, mh14 (male rats; day 14, relative to controls): 1.78 | Phosphatidylcholine (C18:0/C18:2), change of plasma metabolite, mh14 (male rats; day 14, relative to controls): 1.11 | Phosphatidylcholine (C18:0/C22:6), change of plasma metabolite, mh14 (male rats; day 14, relative to controls): 1.15 | Sphingolipids (3- and 5-Methoxysphingosine), change of plasma metabolite, mh14 (male rats; day 14, relative to controls): 1.79 | Stearic acid (C18:0), change of plasma metabolite, mh14 (male rats; day 14, relative to controls): 1.25 | Threonic acid, change of plasma metabolite, mh14 (male rats; day 14, relative to controls): 2.98 | 1,2-Dioleoyl-sn-glycero-3-phosphatidyl-L-serine, change of plasma metabolite, mh28 (male rats; day 28, relative to controls): 1.27 | Behenic acid (C22:0), change of plasma metabolite, mh28 (male rats; day 28, relative to controls): 1.34 | Cholesterol, change of plasma metabolite, mh28 (male rats; day 28, relative to controls): 1.04 | Eicosapentanoic acid, change of plasma metabolite, mh28 (male rats; day 28, relative to controls): 1.4 | Galactose, lipid fraction, change of plasma metabolite, mh28 (male rats; day 28, relative to controls): 1.51 | Lignoceric acid (C24:0), change of plasma metabolite, mh28 (male rats; day 28, relative to controls): 1.21 | Nervonic acid (C24:1), change of plasma metabolite, mh28 (male rats; day 28, relative to controls): 1.17 | Phosphatidylcholine (C18:0/C18:2), change of plasma metabolite, mh28 (male rats; day 28, relative to controls): 1.10 | Phosphatidylcholine (C18:0/C22:6), change of plasma metabolite, mh28 (male rats; day 28, relative to controls): 1.06 | Sphingolipids (3- and 5-Methoxysphingosine), change of plasma metabolite, mh28 (male rats; day 28, relative to controls): 1.46 | Stearic acid (C18:0), change of plasma metabolite, mh28 (male rats; day 28, relative to controls): 1.05 | Threonic acid, change of plasma metabolite, mh28 (male rats; day 28, relative to controls): 3.48
